Laboratory results published in PubChem BioAssay AID1241 (SRMLSC, 2008).
Calls of active or inactive are those of the source. How the calls were made is not given here.

Assay: NF-kB promoter reporter activators, neuronal cells, dose response, cell-based, SH-SY5Y, luciferase (AID 1241)
Conditions: fold induction

| Compound | EC50 |
| --- | --- |
| COc1cc(OC)cc(-c2nc3cc(C)ccc3o2)c1 | 29300 nM |
| Brc1ccc(-c2ncc(-c3ccccc3)cn2)cc1 | 3870 nM |
| CNc1nc(-c2ccc3c(c2)CCN3C(=O)c2ccccc2F)cs1 | 2660 nM |
| c1ccc2c(c1)CCN(c1nc3cc4c(cc3s1)OCO4)C2 | 524 nM |
| CC(C)Oc1cccc(C(=O)Nc2ccc(Br)cc2F)c1 | 2460 nM |
| CCCCc1ccc(-c2ccc(C)cc2O)nc1 | 3250 nM |
| COc1ccc(N=C(C)C2=C(O)c3ccccc3C2=O)cc1 | 889 nM |
| Cc1ccc(/C=N/Nc2nc3ccccc3s2)o1 | 790 nM |
| Cc1ccc(N/N=C(\C#N)C(=N)N2CCCCCC2)cc1 | 1850 nM |
| O=C(CC(Nc1ccc(F)cc1)C(=O)O)c1ccccc1 (stereo unspecified) | 1500 nM |
| Cc1c(C(=O)Nc2nc3ccccc3[nH]2)oc2ccccc12 | 1380 nM |
| C(=N\Nc1nc2ccccc2s1)/c1ccco1 | 2320 nM |
| Nc1cccc(-c2cn3cc(C(F)(F)F)cc(Cl)c3n2)c1 | 682 nM |
| Fc1ccc(-c2cnn3c(-c4ccncc4)ccnc23)cc1 | 1240 nM |
| COc1ccc(/C=C/c2nc(-c3ccccc3O)n[nH]2)cc1 | 2920 nM |
| O=C(NCc1ccco1)c1ccc([N+](=O)[O-])o1 | 6890 nM |
| CCC(=O)Nc1nc(-c2ccc3c(c2)OCCO3)cs1 | 4540 nM |
| COc1ccc2nc(NC(=O)c3ccoc3C)sc2c1 | 3990 nM |
| CN(C)c1ccc(/C=c2\sc3n(c2=O)CCCN=3)cc1 | 11600 nM |
| O=C(NCc1cccnc1)c1ccc([N+](=O)[O-])o1 | 2810 nM |
| C/C(N)=C(/C#N)C(=O)CSc1nnc(-c2ccc3c(c2)OCO3)o1 | < 59 nM |
| Cn1/c(=N/N=C/c2ccccn2)sc2ccccc21 | 6330 nM |
| Cc1ccc(Nc2nc(-c3ccc(O)c(O)c3)cs2)nc1 | 6730 nM |

| Compound | EC50 |
| --- | --- |
| COc1ccc(CSc2nc3ccccc3[nH]2)cc1 | 4290 nM |
| Cc1ccccc1OCC(=O)Nc1cccc(C(=O)O)c1 | 4050 nM |
| O=C(Nc1ccc2c(c1)CCC2)c1ccccc1 | 1840 nM |
| Cc1nc(Nc2ccccc2)sc1-c1ccccc1 | 1450 nM |
| O=C(NC1=NCCS1)c1csc2ccccc12 | 17300 nM |
| Cc1ccnc(NC(=O)CCCOc2cc(=O)n(C)c3ccccc23)c1 | 10500 nM |
| O=C(Nc1ccc2ccccc2c1)c1onc2c1CCCC2 | 632 nM |
| Clc1ccc(CSc2nc3ccncc3[nH]2)cc1 | 6940 nM |
| O=C(c1cnn(-c2ccccc2)c1)c1ccccc1O | 1700 nM |
| CC(C)(C)c1ccc(C(=O)Nc2cccc([N+](=O)[O-])c2)cc1 | 15800 nM |
| O=C(NCCC1=CCCCC1)c1ccc(Cl)cc1 | 198 nM |
| O=C(O)c1cccc(COc2ccccc2Cl)c1 | 1350 nM |
| O=C(c1cccs1)c1ccc(-c2cccs2)s1 | 623 nM |
| Nc1ccc(-c2nc3cc(N)ccc3s2)cc1 | 1100 nM |
| O=C(/C=C/c1c[nH]c2ccccc12)c1ccccc1 | 5440 nM |
| O=C(Nc1ccc2c(c1)CCC2)c1ccccc1F | 1800 nM |
| CSC(=S)N/N=C(\C)c1ccccc1 | 1170 nM |
| O=C(Nc1ccc(Cl)cn1)c1cc2ccccc2o1 | 2430 nM |
| N/C(=N\OC(=O)c1cccc(Br)c1)c1ccccc1 | 23200 nM |
| N/C(=N\OC(=O)c1ccc(Cl)cc1Cl)c1cccnc1 | 2100 nM |
| CCNc1nc(N)nc(-c2cc(Cl)ccc2O)n1 | 847 nM |
| CC(=O)c1cccc(N/C=C\C(=O)c2ccc(C)cc2)c1 | 904 nM |
| Cc1ccsc1C(=O)OCc1csc(-c2ccccc2)n1 | 1540 nM |

| Compound | EC50 |
| --- | --- |
| COc1c(C)cccc1C(=O)Nc1ccc(N2CCOCC2)c(Cl)c1 | 13400 nM |
| CCN(CC)c1ccc(/C=N/NC(=O)c2ccco2)cc1 | 4280 nM |
| COc1ccc2c(c1)CC/C2=N\OC(=O)c1ccccc1C | 1970 nM |
| Cc1nn(-c2ccc([N+](=O)[O-])cc2)c(N)c1-c1ccccc1 | 6720 nM |
| O=C(/C=C\Nc1ccc(Br)cc1)c1cccnc1 | 1150 nM |
| CN=c1scc(C)n1/N=C/c1ccc(O)cc1 | 15600 nM |
| Cc1nc(N)sc1N=Nc1ccc(Br)cc1 | 7000 nM |
| Nc1c(C(=O)Nc2ccc(Cl)cc2)oc2ccccc12 | 11000 nM |
| Cc1ccc(NC(=O)c2ccc3ccccc3n2)nc1 | 4110 nM |
| CN=c1scc(C)n1/N=C/c1ccc2c(c1)OCO2 | 129 nM |
| Cc1nn2cc(-c3ccccc3)nc2s1 | 2030 nM |
| CCOC(=O)c1sc2nc3c(cc2c1N)COC(C)(CC)C3 (stereo unspecified) | 1450 nM |
| Cc1ccc(-c2noc(-c3ccccc3Br)n2)cc1 | 1830 nM |
| Cc1csc(NC(=O)c2ccc(C)c([N+](=O)[O-])c2)n1 | 2120 nM |
| O=C(Nc1ccc2c(c1)CCC2)c1cccs1 | 6510 nM |
| Cc1ccc(NC(=O)COc2ccccc2[N+](=O)[O-])nc1 | 18200 nM |
| Brc1ccccc1/C=N/Nc1ccc2ccccc2n1 | 5500 nM |
| O=C(Nc1ncc(Cc2ccccc2)s1)c1cccs1 | 1080 nM |
| Cc1ccc(Nc2nc3ccccc3s2)c(C)c1 | 874 nM |
| CCCC(=O)Nc1ccc(C(=O)N/N=C/c2ccc[nH]2)cc1 | 2990 nM |
| O=C(OCC(=O)c1cccs1)c1ccccc1 | 12600 nM |
| Cc1ccc(C(=O)Nc2ccc3c(c2)CCC3)o1 | 31000 nM (inactive) |

More lines, in order of falling EC50, values ahead:

| EC50 | Compound |
| --- | --- |
| 28800 nM | CC(C)c1ccc(/C=N/NC(=O)c2cccc(Cl)c2)cc1 |
| 28700 nM | Cc1cc(/C=C(\C#N)C(=O)Nc2ccccc2F)c(C)[nH]1 |
| 28000 nM | Cc1cc(C)c[n+](-c2nc3ccccc3nc2C(=C=[N-])C#N)c1 |
| 25100 nM | COC(=O)c1ccc(/C=C(\C#N)c2ccccn2)cc1 |
| 25100 nM | Cn1cccc1C(=O)C(=O)Nc1ccccc1 |
| 18200 nM | CN(C)c1ccc(/C=N/NC(=O)c2ccco2)cc1 |
| 18000 nM | Cc1ccccc1-c1cc(-c2ccccc2O)n[nH]1 |
| 13100 nM | Cc1ccc(-c2cc(-c3cccs3)[nH]n2)c(O)c1 |
| 10000 nM | Cc1cc(N)n2nc(-c3ccccc3)cc2n1 |
| 9680 nM | Cc1ccccc1-c1cc(-c2ccccc2O)on1 |
| 9470 nM | Cc1ccc(/C=N/Nc2cccc3cccnc23)c(O)c1 |
| 9300 nM | COc1cccc(NC(=O)Nc2ccc3c(c2)nc(C)n3C)c1 |
| 8630 nM | Cn1cccc1/C=C1\CCC/C(=C\c2cccn2C)C1=O |
| 7760 nM | CCCCNc1ncnc2c1cnn2-c1ccc(Cl)cc1 |
| 6870 nM | Cc1ccc(N/C=C(/C#N)c2ccsc2)cc1C |
| 6770 nM | CN(c1ccccc1)c1ccc(/C=N/N2CCOCC2)cc1 |
| 6210 nM | Cc1ccccc1-c1noc(-c2ccc(O)cc2)n1 |
| 5250 nM | CSCCNC(=O)c1ccc(C(C)(C)C)cc1 |
| 5240 nM | Cn1c(C(=O)Nc2ccc3c(c2)OCO3)cc2sccc21 |
| 4870 nM | COc1ccc(Cn2c(/C=C/c3ccccc3)nc3ccccc32)cc1 |
| 4750 nM | Cc1ccc(-n2nnc(-c3cccnc3Cl)n2)cc1 |
| 4240 nM | Cc1cc(C)cc(NC(=O)c2ccc([N+](=O)[O-])o2)c1 |
| 4220 nM | COc1cccc(NC(=O)C(=S)NC2CCCCC2)c1 |

| EC50 | Compound |
| --- | --- |
| 4150 nM | O=C(CSc1ncnc2ccccc12)c1ccco1 |
| 4130 nM | O=C(Nc1ccon1)c1cc2c(s1)CCCC2 |
| 3700 nM | Cc1occc1C(=O)Nc1ccc2ccccc2c1 |
| 3700 nM | CSc1ccccc1-c1nnc(-c2ccccc2)o1 |
| 3420 nM | CN(C)c1ccc(NC(=O)Nc2cccc(Cl)c2)cc1 |
| 3310 nM | CCS/C(N)=N/N=C/c1cc(C)ccc1O |
| 3200 nM | O=C(c1ccc(Cl)cc1)c1coc2ccc(O)cc12 |
| 3190 nM | Fc1ccccc1CSc1nc2ccccc2[nH]1 |
| 2970 nM | N#C/C(=N\Nc1ccc(F)cc1)C(=N)N1CCCCC1 |
| 2790 nM | Cc1ccc(-c2nnc(-c3cccs3)o2)cc1 |
| 2750 nM | O=C(Nc1ccc(Cl)cc1)c1ccc2c(c1)OCO2 |
| 2700 nM | CC(=O)Nc1ccc2nc(-c3ccccc3)cn2c1 |
| 2660 nM | CC(C)(C)C(=O)Nc1nc(-c2ccc3c(c2)OCO3)cs1 |
| 2640 nM | COc1cc(/C=N/N(C)c2ccccc2)ccc1O |
| 2500 nM | CCN(CC)c1ccc(NC(=O)c2ccco2)cc1 |
| 2360 nM | Clc1ccc(-c2nnc(-c3ccccc3Cl)o2)cc1 |
| 2100 nM | COc1ccc2c(c1OC)C(=O)OC2Nc1nc(-c2cc3ccccc3oc2=O)cs1 (stereo unspecified) |
| 2060 nM | COc1ccc(-c2cc(=O)c3ccccc3s2)cc1 |
| 1960 nM | Cc1ccc(S/C=C\C(=O)c2ccccc2)cc1 |
| 1890 nM | Cc1ccc(Nc2nc(-c3ccc(O)cc3O)cs2)nc1 |
| 1690 nM | CCc1sc(C(=O)N2CCc3ccccc32)cc1C |
| 1580 nM | CCn1c(/C=C/c2ccccc2)nc2ccccc21 |
| 1410 nM | Cn1cc([N+](=O)[O-])c(C(=O)Nc2ccc(-c3nc4ccccc4[nH]3)cc2)n1 |

| EC50 | Compound |
| --- | --- |
| 1350 nM | Oc1cccc(/C=N/Nc2cccc3cccnc23)c1 |
| 1300 nM | O=C(/C=C/c1ccc(Cl)cc1Cl)Nc1cccc(S(=O)(=O)NC2=NCCC2)c1 |
| 1230 nM | O=C(Nc1ccc2c(c1)OCO2)c1ccc2c(c1)OCO2 |
| 1080 nM | O=C(Nc1nc2c(s1)CCCC2)c1cccs1 |
| 1060 nM | Cc1ccc2nc(NC(=O)c3ccc(Cl)s3)sc2c1 |
| 996 nM | O=C(/C=C\Nc1ccc2c(c1)OCO2)c1ccc2c(c1)OCO2 |
| 954 nM | O/C(=C\c1ccc2ccccc2n1)c1ccc(O)cc1O |
| 946 nM | COC(=O)c1ccc(-c2nc3ccccc3[nH]2)cc1 |
| 943 nM | COc1ccc(/C=C/c2nc3ccccc3n2Cc2ccc(OC)c(OC)c2)cc1 |
| 907 nM | Cc1cc2nc(-c3ccc(SCC(=O)Nc4ccc(S(=O)(=O)NC5CC5)cc4)nc3)[nH]c2cc1C |
| 776 nM | O=C(COc1ccc2ccccc2c1)Nc1nccs1 |
| 765 nM | Cc1ccc2nc(-c3sc4nc(C)ccc4c3N)[nH]c2c1 |
| 761 nM | Cc1nc(-c2ccc(NC(=O)c3ccccc3)cc2)cs1 |
| 714 nM | Cc1ccc(NC(=O)c2scc3c2CCCC3)cc1 |
| 698 nM | Fc1ccc(Nc2ccc3ccccc3n2)c(F)c1 |
| 532 nM | Fc1ccc(-c2cnn3c(-c4cccs4)ccnc23)cc1 |
| 389 nM | CC1CCN(c2nc3ccc(C(=O)O)cc3s2)CC1 |
| 327 nM | COc1ccc(-c2cn3cc(C)ccc3n2)cc1Br |
| 242 nM | CSc1ccc(/C=C/C(=O)Nc2ccccc2)cc1 |
| 221 nM | CN(C)c1ccc(C(=O)c2ccc(N(C)C)c3ccccc23)cc1 |
| 185 nM | COc1ccc2[nH]c3c(c2c1)CCn1c-3nc2ccccc2c1=O |
| 137 nM | Cc1ccn2cc(-c3cc4ccccc4oc3=O)nc2c1 |
